# Patent US6046171A, “6,11-bridged erythromycin derivatives” (priority 1998, dated 2000)
# Columns and labels:
# Format in all cases: cell-based
# [1] = test system: Staphylococcus aureus ATCC 6538P; assay: in vitro antibacterial MIC, agar dilution (BHI agar, Steers replicator); details: organism code AA; 35-37° C., 20 to 24 hours; unit assumed
# Procedure: (§1) Representative compounds of the present invention were assayed in vitro for antibacterial activity as follows: Twelve petri dishes containing successive aqueous dilutions of the test compound mixed with 10 mL of sterilized Brain Heart Infusion (BHI) agar (Difco 0418-01-5) were prepared. Each plate was inoculated with 1:100 (or 1:10 for slow-growing strains, such as Micrococcus and Streptococcus) dilutions of up to 32 different microorganisms, using a Steers replicator block. […] In addition, a control plate, using BHI agar containing no test compound, was prepared and incubated at the beginning and end of each test.
# (§2) An additional plate containing a compound having known susceptibility patterns for the organisms being tested and belonging to the same antibiotic class as the test compound was also prepared and incubated as a further control, as well as to provide test-to-test comparability.
# (§3) After incubation, each plate was visually inspected. The minimum inhibitory concentration (MIC) was defined as the lowest concentration of drug yielding no growth, a slight haze, or sparsely isolated colonies on the inoculum spot as compared to the growth control.
# [2] = test system: Enterococcus faecium ATCC 8Q43; assay: in vitro antibacterial MIC, agar dilution; details: organism code II; 35-37° C., 20 to 24 hours; unit assumed
# Procedure: as §1, §2, §3
# Escherichia coli DC-2 = assay: in vitro antibacterial MIC, agar dilution; details: organism code SS; 35-37° C., 20 to 24 hours; unit assumed
# Procedure: as §1, §2, §3
# Escherichia coli JUHL = assay: in vitro antibacterial MIC, agar dilution; details: organism code QQ; 35-37° C., 20 to 24 hours; unit assumed
# Procedure: as §1, §2, §3
# Escherichia coli SS = assay: in vitro antibacterial MIC, agar dilution; details: organism code RR; 35-37° C., 20 to 24 hours; unit assumed
# Procedure: as §1, §2, §3
# [3] = test system: Haemophilis Influenzae DILL AMP R; assay: in vitro antibacterial MIC, agar dilution; details: organism code WW; 35-37° C., 20 to 24 hours; unit assumed
# Procedure: as §1, §2, §3
# [4] = test system: Micrococcus luteus ATCC 4698; assay: in vitro antibacterial MIC, agar dilution; details: organism code PP; 35-37° C., 20 to 24 hours; unit assumed
# Procedure: as §1, §2, §3
# [5] = test system: Micrococcus luteus ATCC 9341; assay: in vitro antibacterial MIC, agar dilution; details: organism code OO; 35-37° C., 20 to 24 hours; unit assumed
# Procedure: as §1, §2, §3
# [6] = test system: Mycobacterium smegmatis ATCC 114; assay: in vitro antibacterial MIC, agar dilution; details: organism code UU; 35-37° C., 20 to 24 hours; unit assumed
# Procedure: as §1, §2, §3
# [7] = test system: Nocardia Asteroides ATCC9970; assay: in vitro antibacterial MIC, agar dilution; details: organism code VV; 35-37° C., 20 to 24 hours; unit assumed
# Procedure: as §1, §2, §3
# [8] = test system: Staphylococcus aureus 1775; assay: in vitro antibacterial MIC, agar dilution; details: organism code GG; 35-37° C., 20 to 24 hours; unit assumed
# Procedure: as §1, §2, §3
# [9] = test system: Staphylococcus aureus A-5278; assay: in vitro antibacterial MIC, agar dilution; details: organism code CC; 35-37° C., 20 to 24 hours; unit assumed
# Procedure: as §1, §2, §3
# [10] = test system: Staphylococcus aureus A5177; assay: in vitro antibacterial MIC, agar dilution; details: organism code BB; 35-37° C., 20 to 24 hours; unit assumed
# Procedure: as §1, §2, §3
# [11] = test system: Staphylococcus aureus CMX 553; assay: in vitro antibacterial MIC, agar dilution; details: organism code FF; 35-37° C., 20 to 24 hours; unit assumed
# Procedure: as §1, §2, §3
# [12] = test system: Staphylococcus aureus CMX 642A; assay: in vitro antibacterial MIC, agar dilution; details: organism code DD; 35-37° C., 20 to 24 hours; unit assumed
# Procedure: as §1, §2, §3
# [13] = test system: Staphylococcus aureus NCTC10649M; assay: in vitro antibacterial MIC, agar dilution; details: organism code EE; 35-37° C., 20 to 24 hours; unit assumed
# Procedure: as §1, §2, §3
# [14] = test system: Staphylococcus epidermidis 3519; assay: in vitro antibacterial MIC, agar dilution; details: organism code HH; 35-37° C., 20 to 24 hours; unit assumed
# Procedure: as §1, §2, §3
# [15] = test system: Streptococcus Pheumoniae 5649; assay: in vitro antibacterial MIC, agar dilution; details: organism code ZZA; 35-37° C., 20 to 24 hours; unit assumed
# Procedure: as §1, §2, §3
# [16] = test system: Streptococcus Pheumoniae ATCC6303; assay: in vitro antibacterial MIC, agar dilution; details: organism code XX; 35-37° C., 20 to 24 hours; unit assumed
# Procedure: as §1, §2, §3
# [17] = test system: Streptococcus Pheumoniae GYR 1171; assay: in vitro antibacterial MIC, agar dilution; details: organism code YY; 35-37° C., 20 to 24 hours; unit assumed
# Procedure: as §1, §2, §3
# [18] = test system: Streptococcus agalactiae CMX 508; assay: in vitro antibacterial MIC, agar dilution; details: organism code KK; 35-37° C., 20 to 24 hours; unit assumed
# Procedure: as §1, §2, §3
# [19] = test system: Streptococcus bovis A-5169; assay: in vitro antibacterial MIC, agar dilution; details: organism code JJ; 35-37° C., 20 to 24 hours; unit assumed
# Procedure: as §1, §2, §3
# [20] = test system: Streptococcus pyogenes 930; assay: in vitro antibacterial MIC, agar dilution; details: organism code MM; 35-37° C., 20 to 24 hours; unit assumed
# Procedure: as §1, §2, §3
# [21] = test system: Streptococcus pyogenes EES61; assay: in vitro antibacterial MIC, agar dilution; details: organism code LL; 35-37° C., 20 to 24 hours; unit assumed
# Procedure: as §1, §2, §3
# [22] = test system: Streptococcus pyogenes PIU 2548; assay: in vitro antibacterial MIC, agar dilution; details: organism code NN; 35-37° C., 20 to 24 hours; unit assumed
# Procedure: as §1, §2, §3
# Candida albicans CCH 442 = assay: in vitro MIC, agar dilution; details: organism code TT; 35-37° C., 20 to 24 hours; unit assumed
# Procedure: as §1, §2, §3
# [23] = test system: Streptococcus Pheumoniae 5979; assay: in vitro antibacterial MIC, agar dilution; details: organism code ZZ; 35-37° C., 20 to 24 hours; unit assumed
# Procedure: as §1, §2, §3
SMILES,MIC [1],MIC [2],MIC (Escherichia coli SS),MIC [3],MIC [4],MIC [5],MIC [6],MIC [7],MIC [10],MIC [11],MIC [12],MIC [13],MIC [14],MIC [15],MIC [18],MIC [19],MIC [20],MIC [21],MIC [22],also measured
"CC[C@H]1OC(=O)[C@H](C)[C@@H](O[C@H]2C[C@@](C)(OC)[C@@H](O)[C@H](C)O2)[C@H](C)[C@@H](O[C@@H]2O[C@H](C)C[C@H](N(C)C)[C@H]2O)[C@](C)(O)C[C@@H](C)C(=O)[C@H](C)[C@@H](O)[C@]1(C)O [Ery. A, Erythromycin A, reference compound]",0.2 µg/mL,0.05 µg/mL,0.78 µg/mL,4 µg/mL,0.2 µg/mL,0.05 µg/mL,3.1 µg/mL,0.1 µg/mL,3.1 µg/mL,0.39 µg/mL,0.39 µg/mL,0.39 µg/mL,0.39 µg/mL,16 µg/mL,0.05 µg/mL,0.02 µg/mL,> 100 µg/mL,0.05 µg/mL,6.2 µg/mL,MIC (Escherichia coli DC-2): > 100 µg/mL; MIC (Escherichia coli JUHL): > 100 µg/mL; MIC [8]: > 100 µg/mL; MIC [9]: > 100 µg/mL; MIC [16]: 0.06 µg/mL; MIC [17]: 0.06 µg/mL; MIC (Candida albicans CCH 442): > 100 µg/mL
CC[C@H]1OC(=O)[C@H](C)[C@@H](O[C@H]2C[C@@](C)(OC)[C@@H](OC(C)=O)[C@H](C)O2)[C@H](C)[C@@H](O[C@@H]2O[C@H](C)C[C@H](N(C)C)[C@H]2O)[C@@]2(C)C[C@@H](C)C(=O)[C@H](C)[C@H]3N(CCNCc4cccc(c4)C=CCO2)C(=O)O[C@]13C [Example 10],6.2 µg/mL,0.78 µg/mL,6.2 µg/mL,,1.56 µg/mL,0.39 µg/mL,0.39 µg/mL,1.56 µg/mL,25 µg/mL,6.2 µg/mL,6.2 µg/mL,6.2 µg/mL,6.2 µg/mL,8 µg/mL,0.39 µg/mL,0.39 µg/mL,25 µg/mL,0.78 µg/mL,6.2 µg/mL,
CC[C@H]1OC(=O)[C@H](C)C(=O)[C@H](C)[C@@H](O[C@@H]2O[C@H](C)C[C@H](N(C)C)[C@H]2O)[C@@]2(C)C[C@@H](C)C(=O)[C@H](C)[C@H]3N(CCOCc4ccccc4C=CCO2)C(=O)O[C@]13C [Example 12],0.78 µg/mL,0.1 µg/mL,1.56 µg/mL,16 µg/mL,,,0.78 µg/mL,0.78 µg/mL,0.78 µg/mL,0.78 µg/mL,0.78 µg/mL,0.78 µg/mL,0.78 µg/mL,1 µg/mL,,,50 µg/mL,,,MIC [23]: 128 µg/mL
